The values below come from patent EP4806891A1 (Kangbaida (Sichuan) Biotechnology Co., Ltd., priority 2023, dated 2025).

Experiment [1] addresses T1, HEK-Blue-hTLR7 cells (Homo sapiens, UniProt Q9NYK1).
T1 construct: expressed in transfected cells; host or cells: HEK-Blue-hTLR7 cells (HEK293-derived reporter line)
T1 sequence (Q9NYK1 27-1049): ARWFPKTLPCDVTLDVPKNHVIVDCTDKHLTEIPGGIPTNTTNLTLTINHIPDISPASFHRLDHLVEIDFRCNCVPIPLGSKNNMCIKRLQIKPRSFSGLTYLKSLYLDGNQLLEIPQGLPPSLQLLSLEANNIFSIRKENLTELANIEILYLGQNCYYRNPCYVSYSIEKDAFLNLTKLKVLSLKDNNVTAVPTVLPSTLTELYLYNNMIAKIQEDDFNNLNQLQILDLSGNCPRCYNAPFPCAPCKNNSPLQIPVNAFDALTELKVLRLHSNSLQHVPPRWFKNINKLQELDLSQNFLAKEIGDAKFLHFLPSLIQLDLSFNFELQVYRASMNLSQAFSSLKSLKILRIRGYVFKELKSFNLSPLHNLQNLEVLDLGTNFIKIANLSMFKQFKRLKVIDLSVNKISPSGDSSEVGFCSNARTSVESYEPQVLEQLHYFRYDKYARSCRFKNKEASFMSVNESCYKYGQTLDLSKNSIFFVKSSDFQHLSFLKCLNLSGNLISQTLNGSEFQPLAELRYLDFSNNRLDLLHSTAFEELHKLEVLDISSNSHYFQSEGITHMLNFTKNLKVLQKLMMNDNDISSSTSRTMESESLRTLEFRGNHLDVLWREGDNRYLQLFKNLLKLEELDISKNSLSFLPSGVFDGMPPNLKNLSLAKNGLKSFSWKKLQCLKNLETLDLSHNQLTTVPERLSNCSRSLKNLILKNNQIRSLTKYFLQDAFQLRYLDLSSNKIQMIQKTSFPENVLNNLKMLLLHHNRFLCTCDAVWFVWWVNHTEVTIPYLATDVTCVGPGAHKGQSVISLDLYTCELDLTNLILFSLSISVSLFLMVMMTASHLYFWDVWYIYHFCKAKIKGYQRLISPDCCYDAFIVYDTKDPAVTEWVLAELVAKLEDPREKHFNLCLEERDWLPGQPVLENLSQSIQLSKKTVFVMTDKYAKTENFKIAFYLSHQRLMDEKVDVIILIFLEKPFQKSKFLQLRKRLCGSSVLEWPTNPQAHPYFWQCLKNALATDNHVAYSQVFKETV
In words: HEK-Blue-hTLR7 cell inhibition assay. The format is cell-based. The note with it: R848 0.8 µM, 16 h, OD 620 nm, read-out: TLR7 IC50. Here is the method: (§1) HEK-Blue-hTLR7/8/9 cell inhibition assay
(§2) 1. HEK-Blue-hTLR7/8 cells (1 × 10^4 cells/well) and HEK-Blue-hTLR9 cells (1.5 × 10^4 cells/well) were seeded in a 384-well cell culture plate, with a volume of 30 µL per well. The plate was incubated at 37°C in a 5% CO2 incubator for 4 h. 2. The compound was prepared with DMSO and diluted in DMEM medium to 10 concentrations (1:3 dilution), with final concentrations of 10000, 3333.3, 1111.1, 370.4, 123.5, 41.2, 13.7, 4.6, 1.5, and 0.5 nM; R848 was prepared with DMSO and diluted in DMEM medium, with final concentrations of 0.8 µM (HEK-Blue-hTLR7) and 3 µM (HEK-Blue-hTLR8); ODN2006 was prepared with endotoxin-free water and diluted in DMEM medium, with a final concentration of 1 µM. 3. Cells treated with DMSO were used as the blank control group, while cells treated solely with Resiquimod (R848) were used as the positive control group for HEK-Blue-hTLR7/8, and cells treated solely with ODN2006 were used as the positive control group for HEK-Blue-hTLR9. Cells treated with the test compound together with R848 or ODN2006 were used as the test group. Two parallel wells were set for each group and were placed at 37°C in a 5% CO2 incubator for incubation. 4. After being incubated for 4 h, the 384-well plate of HEK-Blue-hTLR7/8 was taken out from the incubator, and R848 alone or both R848 and the diluted compound were separately added into each well. The plate was placed at 37°C in a 5% CO2 incubator for incubation for 16 h; the 384-well plate of HEK-Blue-hTLR9 was taken out from the incubator, and ODN2006 alone or both ODN2006 and the diluted compound were added separately to each well. The plate was incubated at 37°C in a 5% CO2 incubator for 16 h. 5. After being incubated for 16 h, the 384-well plate was removed from the incubator and centrifuged at 1000 rpm for 1 minute. The optical density value of each well at 620 nm was measured using a multifunctional microplate reader. 6. The cell inhibition rate was calculated as (1-(OD620 test group-OD620 blank group)/(OD620 positive group-OD620 blank group))×100%, and the half maximal inhibitory concentration (IC50) was calculated through curve fitting. Table 1: Activity of the compounds of the present disclosure in HEK-Blue-hTLR7/8/9 cellular assays

In experiment [2] the target is T2, HEK-Blue-hTLR8 cells (Homo sapiens, UniProt Q9NR97).
T2 construct: expressed in transfected cells; host or cells: HEK-Blue-hTLR8 cells (HEK293-derived reporter line)
T2 sequence (Q9NR97 27-1041): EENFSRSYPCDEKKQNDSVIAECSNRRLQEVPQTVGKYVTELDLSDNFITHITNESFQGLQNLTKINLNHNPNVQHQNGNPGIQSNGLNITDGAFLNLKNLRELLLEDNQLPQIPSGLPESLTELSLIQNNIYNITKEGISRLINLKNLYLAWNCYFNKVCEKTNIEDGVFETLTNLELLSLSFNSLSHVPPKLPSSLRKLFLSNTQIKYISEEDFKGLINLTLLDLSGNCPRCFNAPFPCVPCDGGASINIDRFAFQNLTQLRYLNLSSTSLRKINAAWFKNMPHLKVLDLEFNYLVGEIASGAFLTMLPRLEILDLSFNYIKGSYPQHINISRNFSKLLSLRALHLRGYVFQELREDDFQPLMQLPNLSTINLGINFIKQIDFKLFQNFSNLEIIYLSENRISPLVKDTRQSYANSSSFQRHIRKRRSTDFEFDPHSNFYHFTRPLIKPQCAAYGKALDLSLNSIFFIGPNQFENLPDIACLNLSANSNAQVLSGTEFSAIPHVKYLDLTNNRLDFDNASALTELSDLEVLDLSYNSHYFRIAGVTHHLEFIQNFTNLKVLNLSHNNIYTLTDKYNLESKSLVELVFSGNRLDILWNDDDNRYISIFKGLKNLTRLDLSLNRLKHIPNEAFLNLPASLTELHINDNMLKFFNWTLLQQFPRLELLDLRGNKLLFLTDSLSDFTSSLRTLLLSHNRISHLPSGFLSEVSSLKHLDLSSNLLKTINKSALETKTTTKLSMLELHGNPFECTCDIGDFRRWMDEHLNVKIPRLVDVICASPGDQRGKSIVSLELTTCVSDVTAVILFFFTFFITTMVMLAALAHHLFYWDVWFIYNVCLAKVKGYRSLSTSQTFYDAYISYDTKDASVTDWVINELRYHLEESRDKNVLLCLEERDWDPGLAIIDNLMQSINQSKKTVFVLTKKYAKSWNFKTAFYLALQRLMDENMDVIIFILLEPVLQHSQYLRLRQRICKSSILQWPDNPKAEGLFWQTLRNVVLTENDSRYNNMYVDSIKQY
Description: HEK-Blue-hTLR8 cell inhibition assay. The note with it: R848 3 µM, 16 h, OD 620 nm, read-out: TLR8 IC50. The experiment is classed as cell-based. Here is the method: as §1, §2

Regarding `CN1CC2(CC(c3nnc([C@]45CN(c6ccc(C(F)(F)F)c7ncccc67)C[C@@]4(C(F)(F)F)C5)o3)C2)C1` [Compound 16, 2-(2-methyl-2-azaspiro[3.3]heptan-6-yl)-5-((1S,5R)-5-(trifluoromethyl)-3-(8-(trifluoromethyl)quinolin-5-yl)-3-azabicyclo[3.1.0]hexan-1-yl)-1,3,4-oxadiazole], the IC50 in experiment [1] and in experiment [2] was less than 100 nM each time.
`N#Cc1ccc(N2C[C@]3(c4nnc(OCCN5CCCC5)o4)C[C@]3(C(F)(F)F)C2)c2cccnc12` [Compound 48, 5-((1S,5R)-1-(5-(2-(pyrrolidin-1-yl)ethoxy)-1,3,4-oxadiazol-2-yl)-5-(trifluoromethyl)-3-azabicyclo[3.1.0]hexan-3-yl)quinoline-8-carbonitrile]: the IC50 in experiment [1] and in experiment [2] was less than 100 nM throughout.
In the case of `CN1CCC(c2nnc([C@]34CN(c5ccc(C#N)c6nc(Cl)ccc56)C[C@@]3(C(F)(F)F)C4)o2)CC1` [Compound 58, 2-chloro-5-((1S,5R)-1-(5-(1-methylpiperidin-4-yl)-1,3,4-oxadiazol-2-yl)-5-(trifluoromethyl)-3-azabicyclo[3.1.0]hexan-3-yl)quinoline-8-carbonitrile], the IC50 in experiment [1] and in experiment [2] was greater than 1000 nM throughout.
With `COc1ccc2c(N3C[C@]4(c5nnc(C6CCN(C)CC6)o5)C[C@]4(C(F)(F)F)C3)ccc(C#N)c2n1` [Compound 61, 2-methoxy-5-((1S,5R)-1-(5-(1-methylpiperidin-4-yl)-1,3,4-oxadiazol-2-yl)-5-(trifluoromethyl)-3-azabicyclo[3.1.0]hexan-3-yl)quinoline-8-carbonitrile], the IC50 is greater than 1000 nM in experiment [1] and less than 1000 nM in experiment [2].
The corresponding values for `CN1CCC(c2nnc([C@]34CN(c5ccc([N+](=O)[O-])c6ncccc56)C[C@@]3(C(F)(F)F)C4)o2)CC1` [Compound 62, 2-(1-methylpiperidin-4-yl)-5-((1S,5R)-3-(8-nitroquinolin-5-yl)-5-(trifluoromethyl)-3-azabicyclo[3.1.0]hexan-1-yl)-1,3,4-oxadiazole] are less than 100 nM and less than 100 nM.
The corresponding values for `CN1CCN(c2nnc([C@]34CN(c5ccc(C#N)n6ncc(F)c56)C[C@@]3(C(F)(F)F)C4)o2)CC1` [Compound 63, 3-fluoro-4-((1S,5R)-1-(5-(4-methylpiperazin-1-yl)-1,3,4-oxadiazol-2-yl)-5-(trifluoromethyl)-3-azabicyclo[3.1.0]hexan-3-yl)pyrazolo[1,5-a]pyridine-7-carbonitrile] are less than 100 nM and less than 100 nM.
Take `Cc1ccc(N2C[C@]3(c4nnc(C5CCN(C)CC5)o4)C[C@]3(C(F)(F)F)C2)c2cccnc12` [Compound 65, 2-(1-methylpiperidin-4-yl)-5-((1S,5R)-5-(trifluoromethyl)-3-(8-methylquinolin-5-yl)-3-azabicyclo[3.1.0]hexan-1-yl)-1,3,4-oxadiazole]: the IC50 in experiment [1] and in experiment [2] was less than 100 nM each time.
In the case of `CN1CCC(c2nnc([C@]34CN(c5ccc(Cl)c6ncccc56)C[C@@]3(C(F)(F)F)C4)o2)CC1` [Compound 67, 2-((1S,5R)-3-(8-chloroquinolin-5-yl)-5-(trifluoromethyl)-3-azabicyclo[3.1.0]hexan-1-yl)-5-(1-methylpiperidin-4-yl)-1,3,4-oxadiazole], the IC50 in experiment [1] and in experiment [2] was less than 100 nM each time.
Take `CN1CCC(c2nnc([C@]34CN(c5cnc(C#N)c6ncccc56)C[C@@]3(C(F)(F)F)C4)o2)CC1` [Compound 68, 5-((1S,5R)-1-(5-(1-methylpiperidin-4-yl)-1,3,4-oxadiazol-2-yl)-5-(trifluoromethyl)-3-azabicyclo[3.1.0]hexan-3-yl)-1,7-naphthyridine-8-carbonitrile]: the IC50 in experiment [1] and in experiment [2] was less than 100 nM throughout.
Consider `CN1CCC(c2nnc([C@]34CN(c5ccc(F)c6ncccc56)C[C@@]3(C(F)(F)F)C4)o2)CC1` [Compound 69, 2-((1S,5R)-3-(8-fluoroquinolin-5-yl)-5-(trifluoromethyl)-3-azabicyclo[3.1.0]hexan-1-yl)-5-(1-methylpiperidin-4-yl)-1,3,4-oxadiazole], for which the IC50 in experiment [1] and in experiment [2] was less than 100 nM in each case.
Consider `CCc1nc2c(C#N)ccc(N3C[C@]4(c5nnc(C6CCN(C)CC6)o5)C[C@]4(C(F)(F)F)C3)c2nc1CC` [Compound 70, 2,3-diethyl-8-((1S,5R)-1-(5-(1-methylpiperidin-4-yl)-1,3,4-oxadiazol-2-yl)-5-(trifluoromethyl)-3-azabicyclo[3.1.0]hexan-3-yl)quinoxaline-5-carbonitrile], for which the IC50 in experiment [1] was greater than 1000 nM; in experiment [2], greater than 10000 nM.
Consider `CN1CCC(c2nnc([C@]34CN(c5ccc(C#N)c6c5ccc(=O)n6C)C[C@@]3(C(F)(F)F)C4)o2)CC1` [Compound 72, 1-methyl-5-((1S,5R)-1-(5-(1-methylpiperidin-4-yl)-1,3,4-oxadiazol-2-yl)-5-(trifluoromethyl)-3-azabicyclo[3.1.0]hexan-3-yl)-2-oxo-1,2-dihydroquinoline-8-carbonitrile], for which the IC50 in experiment [1] was greater than 1000 nM; in experiment [2], less than 1000 nM.
